Assay results taken from patent US20230357099A1, “PYRAZOLO [3,4-B] PYRIDINE-4-CARBOXAMIDE NITRIFICATION INHIBITOR” (EUROCHEM ANTWERPTEN, priority 2020, published 2023).

Assays:
[1] = test system: Nitrososphaera viennensis; assay: Nitrification inhibition assay on Nitrososphaera viennensis (nitrite, Griess); assay type: cell-based, Nitrososphaera viennensis EN76T; conditions: 0% = as strong as 100 µM PTIO, 100% = no inhibition
Method in brief: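 N. viennensis EN76T cultures in FWM (pH 7.5, NH4Cl-supplemented), 5× concentrated, treated with compounds at 2.5 µM final (0.25% DMSO) and incubated 24 h at 42 °C. Nitrite measured by Griess absorbance at 540 nm against a standard curve. Relative nitrification normalized between DMSO (no compound) and 100 µM PTIO controls.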

[2] = test system: Candidatus Nitrospira kreftii; assay: Nitrification inhibition in Candidatus Nitrospira kreftii; assay type: cell-based; conditions: concentration of 6.25 µM
Protocol: Candidatus Nitrospira kreftii is a high (90%) enrichment of novel comammox species. To quantify nitrification inhibition in Ca. Nitrospira kreftii, a homogenous sample was taken from the bioreactor, washed and resuspended in sterile NOB mineral salts medium supplemented with (per liter) 1 mL of a trace element stock solution composed of NTA (15 g/L), ZnSO4 · 7H2O (0.43 g/L), CoCl2 · 6H2O (0.24 g/L), MnCl2 · 4H2O (0.99 g/L), CuSO4 · 5H2O (0.25 g/L), Na2MoO4 · 2H2O (0.22 g/L), NiCl2 · 6H2O (0.19 g/L), NaSeO4·10H2O (0.021 g/L), […] (0.014 g/L), CeCl·6H2O (0.24 g/L) and 1 mL of an iron stock solution composed of NTA (10 g/L) and FeSO4 (5 g/L). The final ammonium concentration was 200 µM.
To increase the nitrification rate, the cell density was increased 5 times via centrifugation. For homogenous distribution of the flocs, Ca. Nitrospira kreftii was continuously stirred during distribution with a multichannel pipet in the 96-well plates. […]
Ammonium concentrations were measured fluorescently via a modified orthophatal-dialdehyde assay. Nitrite and nitrate concentrations were determined consecutively with a spectrophotometer (at 540 nm): for nitrite, after addition of 100 µL Griess reagent to 100 µL sample (10 min incubation at room temperature) and for nitrate, subsequent to secondary addition of 27 µL of a saturated VCl3 solution in HCl (30 min incubation at 60° C.).

[3] = test system: ABIL (ammonia-binding liquid inoculum), nitrifying microbial enrichment containing both AOA and AOB; assay: Nitrification inhibition assay on ABIL (ammonium consumption); assay type: cell-based; conditions: 0% = as strong as 100 µM PTIO, 100% = no inhibition

Structure (SMILES): CC(C)c1cc(C(=O)N2CCSCC2)c2cnn(C(C)C)c2n1 [Example 2]
- N. viennensis - relative nitrification (%) at 0.5 µM ([1]; 0.5 µM compound): 100%
- N. viennensis - relative nitrification (%) at 5 µM ([1]; 5 µM compound): 75%
- N. viennensis - relative nitrification (%) at 25 µM ([1]; 25 µM compound): 0%
- inhibition at 6.25 µM [2]: 57.3%
- ABIL - relative nitrification (%) at 2 µM ([3]; 2 µM compound): 66%
- activity at 10 µM ([3]; 24 h, 10 µM compound, 24 h, read-out: ABIL - relative nitrification (%) at 10 µM): -31%
